These are literature values, as cited in patent publication US8067464B2, “Compositions and methods using apocynin compounds and nitric oxide donors” (Nitromed, Inc., priority 2004, dated 2011).

For the compound `O=[N+]([O-])O[C@H]1CO[C@H]2[C@@H]1OC[C@H]2O[N+](=O)[O-]` [isosorbide dinitrate, 1,4,3,6-dianhydro-D-glucitol-2,5-dinitrate], the “solubility in organic solvents” value (organic solvents such as ethanol, ether and chloroform) was “freely soluble”. The solubility in water result (water) is “sparingly soluble”.
